Results reported in patent US20070207993A1, “Molybdenum carbonyl complexes for treating rheumatoid arthritis and other inflammatory diseases” (Alfama - Investigacao e Desenvolvimetno De Productos …, priority 2005, published 2007).

Experiments:
[1] = Spontaneous CO release from suspensions (gas chromatography, TCD); format: physicochemical; conditions: suspension in RPMI with 10% FBS, 37° C., dark
Experimental: CO detection was carried out by Gas Chromatography using a thermal conductivity detector (TCD) for the quantification of CO and CO2. The experiments were done under an initial atmosphere of reconstituted air, free of CO and CO2. […] […] Samples were withdrawn with gas-tight Hamilton syringes after homogenization of the head-space at given time intervals, preferably 2 hours, 4 hours and 6 hours. […] The volumes of CO released are usually in the range between 0.5-3 mL.
As a possible result of the use of suspensions, the number of CO equivalents released in RPMI varied slightly. As an example of the possible variations, the average of eight independent assays done with suspensions of Compound I.1 is given in Table 2.

[2] = CO release in the presence of reactive oxygen species (TBHP, H2O2, KO2); format: physicochemical; conditions: 25° C., dark; for Equivalents of CO2 released, H2O2 / Equivalents of CO released, H2O2: H2O2 100:1, water; for Equivalents of CO2 released, TBHP / Equivalents of CO released, TBHP: TBHP 100:1, water
Experimental: The studies were done using the same method and apparatus described in Example 7 with the following modifications: RPMI/FBS was replaced by double distilled water in the experiments with H2O2 and TBHP and by tetrahydrofuran (THF) for the experiments with KO2; the temperature was kept at 25° C. The concentration of Compound I.1 was approximately 1 mM and the ration of concentrations of H2O2, TBHP and KO2 relative to Compound I.1 was 100:1. The amount of CO2 generated was also measured in the same experiment to ascertain the concurrent oxidation of coordinated CO. TBHP was added from a 70% aqueous solution and H2O2 from a 30% aqueous solution.

[3] = system: rat arthritis model; conditions: previously shown, US 2003/0068387; cited from earlier work

## O=[C][Mo]([I])([C]=O)([C]=O)([C]=O)[C]=O [Compound I.6]
[1]; 2 hours
  Equivalents of CO released, RPMI: 0.42 equivalents of CO
[1]; 4 hours
  Equivalents of CO released, RPMI: 1.00 equivalents of CO
[1]; 6 hours
  Equivalents of CO released, RPMI: 1.25 equivalents of CO
[2]; 1 h
  Equivalents of CO2 released, H2O2: 0.14 equivalents
  Equivalents of CO released, H2O2: 1.31 equivalents
  Equivalents of CO2 released, TBHP: 0.00 equivalents
  Equivalents of CO released, TBHP: 0.48 equivalents
[2]; 3 h
  Equivalents of CO2 released, H2O2: 0.44 equivalents
  Equivalents of CO released, H2O2: 3.04 equivalents
  Equivalents of CO2 released, TBHP: 0.24 equivalents
  Equivalents of CO released, TBHP: 1.75 equivalents
[2]; 5 h
  Equivalents of CO2 released, H2O2: 0.51 equivalents
  Equivalents of CO released, H2O2: 3.20 equivalents
  Equivalents of CO2 released, TBHP: 0.55 equivalents
  Equivalents of CO released, TBHP: 3.51 equivalents
[2]; 24 h
  Equivalents of CO2 released, H2O2: 0.35 equivalents
  Equivalents of CO released, H2O2: 1.91 equivalents
  Equivalents of CO2 released, TBHP: 0.99 equivalents
  Equivalents of CO released, TBHP: 4.29 equivalents

## O=[C][Mo]([I])([C]=O)([C]=O)([C]=O)[C]=O [Compound I.16, K(diglyme)3 [Mo(CO)5I]]
[1]; 2 hours
  Equivalents of CO released, RPMI: 0.94 equivalents of CO
[1]; 4 hours
  Equivalents of CO released, RPMI: 1.20 equivalents of CO
[1]; 6 hours
  Equivalents of CO released, RPMI: 1.28 equivalents of CO

## O=[C][Mo]([I])([C]=O)([C]=O)([C]=O)[C]=O [Compound I.18, [NH4](diglyme)3[Mo(CO)5I]]
[1]; 2 hours
  Equivalents of CO released, RPMI: 0.55 equivalents of CO
[1]; 4 hours
  Equivalents of CO released, RPMI: 0.73 equivalents of CO
[1]; 6 hours
  Equivalents of CO released, RPMI: 0.79 equivalents of CO

## ClCCl [Methylene chloride]
[3]
  effects in a rat arthritis model: beneficial effects
